Source: US20250235454A1, “XOPHOS INHIBITORS FOR USE IN THE TREATMENT OF B-CELL LYMPHOMA” (CENTRE NATIONAL DE LA RECHERCHE SCIENTIFIQUE, priority 2022, published 2025)

Columns and labels:
[1] = system: human B cell lymphoma line (RL line, CVCL_1660); experiment: Seahorse analysis of oxygen consumption rate (OCR); assay type: cell-based; settings: for inhibition of OCR: RL cells; for effect on mitochondrial respiration: increasing concentrations 1.2-10 μM, compared to rotenone or IACS-010759
Experimental: The analyser known as “Seahorse” allows evaluation mitochondrial respiration in real time by measuring Oxygen Consumption Rate (OCR). The experiments have been carried out according to the supplier's recommendations (“Agilent_Seahorse XFe96”). To achieve this, 150,000 cells per well of a human B cell lymphoma line (“RL line, CVCL_1660”) have been seeded in 180 μL of Agilent_Seahorse XF RPMI medium (supplemented with pyruvate and glucose) on a dedicated Agilent_Seahorse 96-well plate, pre-treated with a solution of CellTak according to the supplier's recommendations (Corning). After 30 min incubation in a CO2-free oven, the plate has been analysed with the “Seahorse” using a protocol allowing injection (indicated by arrows in FIG. 1) of increasing amounts of compound to obtain a final cumulative concentration of 1.2 μM, 2.5 μM, 5 μM and 10 μM, followed each time by an OCR reading (in pmol/min) for 10 min. Data normalisation has been carried out by cell counting, using a device known as the “Cytation 1/5 Cell Imaging Multi-Mode reader” (BioTek Instruments, Inc) coupled to the “Seahorse”.
A control is used (DMSO, curve with solid squares) in each figure and corresponds to the medium studied without addition of compound (addition only of the DMSO diluent from the molecule stocks). […] In addition, injection of increasing concentrations of compounds in accordance with the invention induces progressive inhibition of OCR, in a similar manner and in stages for compounds (Ib) and (Ic), and progressively for compound (Ia).

[2] = system: RH30, CVCL_0041 rhabdomyosarcoma sarcoma line; experiment: Effect on cell growth, paediatric sarcoma line RH30 (CellTiterFluor); assay type: cell-based, human; settings: 48 h, HLPM medium
Experimental: (§1) Human tumour cells from two paediatric rhabdomyosarcoma-like sarcoma lines (“RD136, CVCL_1649”, FIG. 5a and “RH3O, CVCL_0041”, FIG. 5b) have been seeded in a 96-well plate in the presence of a concentration of 10 μM of compound, in a volume of 100 μL of “Gibco Human Like Plasma Medium” (Gibco HPLM_Thermo Fisher Scientific). The effect of compounds (Ia), (Ib) and (Ic) has been compared with that of the inhibitors IACS-010759 (IACS) and IM156 (metformin analogue) currently in clinical trials, Rotenone (ROT) and the apoptosis inducer staurosporine (STS). After 48 hours of treatment, the effect on the number of living cells has been evaluated using the “CellTiterFluor” kit from Promega, identically to FIG. 2b.
Human tumour cells from the paediatric rhabdomyosarcoma sarcoma line (“RH30, CVCL_0041”) have been seeded in a 96-well plate in the presence of a 10 μM or 25 μM concentration of compound, in a 100 μL volume of “Gibco Human Like Plasma Medium” (Gibco HPLM_Thermo Fisher Scientific). After 48 h of treatment, the effect of compounds (Ia), (Ie) and (If) on cell growth has been evaluated using the Promega “CellTiterFluor” kit as in FIG. 2b.

[3] = system: RD136, CVCL_1649 rhabdomyosarcoma-like sarcoma line; experiment: Effect on cell growth, paediatric sarcoma line RD136 (CellTiterFluor); assay type: cell-based, human; settings: 10 μM, 48 h, HLPM medium, FIG. 5a
Experimental: as §1

[4] = system: human B cell lymphoma cell line (RL, CVCL_1660); experiment: Effect on cell growth, B cell lymphoma line RL (live cell count by flow cytometry); assay type: cell-based; settings: 5 μM or 10 μM, 48 h, RPMI medium, FIG. 6
Experimental: Cells from the human B cell lymphoma cell line (“RL, CVCL_1660”), have been seeded at a density of 100,000 cells per well, in a 96-well plate in the presence of a concentration of 5 μM or 10 μM of compound, in a volume of 100 μL of RPMI medium. After 48 h of treatment, analyses of the effect on cell growth have been conducted by counting live cells using flow cytometry, as in FIG. 2a.

[5] = system: human B cell lymphoma cell line (Karpas422, CVCL_1325); experiment: IC50 on cell growth, Karpas422 (CellTiter-Fluor Cell Viability Assay); assay type: cell-based; settings: KARPAS-422, Karpas422, RPMI 1640 (11 mM glucose) with 10% serum, 48 h
Experimental: These experiments have been performed using cells from a human B cell lymphoma cell line (“Karpas422, CVCL_1325”) which have been seeded in “RPMI 1640” medium (11 mM glucose) supplemented with 10% serum, in the presence of increasing concentrations of compounds.
After 48 h of treatment, analyses of the effect on cell growth have been conducted, using the “CellTiter-Fluor Cell Viability Assay” (Promega) live cell detection kit, as in FIG. 2b, and following the supplier's instructions.

[6] = system: human B cell lymphoma cell line (Karpas422, CVCL_1325); experiment: Effect on cell growth, B cell lymphoma line Karpas422 (live cell count by flow cytometry or CellTiterFluor); assay type: cell-based; settings: 10 μM, 48 h, RPMI and HLPM medium, FIG. 2
Experimental: Cells from a human B cell lymphoma cell line (“Karpas422, CVCL_1325”) have been seeded at a density of 100,000 cells per well, in a 96-well plate in the presence of a 10 μM concentration of compound, in a volume of 100 μL of medium. After 48 h of treatment, analyses of the effect on cell growth have been conducted, either by counting live cells using flow cytometry (FIG. 2a), or using a biochemical fluorescence detection kit for live cells (FIG. 2b).
In conventional “Gibco RPMI1640/10°/0 SVF” medium, the number of living cells has been determined after double AnnexinV/PI labelling, and analysis using the flow cytometer known as “ATTUNE” (Thermo Fisher Scientific). In “Gibco Human Like Plasma Medium”, the number of live cells has been evaluated using the “CellTiterFluor” kit and after measurement of relative fluorescence units (RFU) according to the supplier's recommendations (Promega). The term DMSO in FIG. 2 corresponds to the control, i.e. identical medium with no added compound.

[7] = system: human tumour cells of a B cell lymphoma line (SUDHL-4, CVCL_0539); experiment: In ovo xenograft model on the chorioallantoic membrane (CAM) of the chicken embryo; assay type: in vivo
Excerpt: Preclinical evaluation analyses of the anti-tumour efficacy of compound (Ia) have been carried out using the xenograft model on the chorioallantoic membrane (CAM) of the chicken embryo. […] Treatments have been performed on days E11, E13, E15 and E17. At day E18, the upper CAM portions containing tumours have been removed and weighed, and the lower CAM fragments have been used to evaluate the presence of human cells indicative of metastases by RT-gPCR (polymerase chain reaction from an RNA sample). 0.0097 mg/kg Doxorubicin (DOXO) has been used as a positive control for treatment efficacy, compound (Ia) has been used at 3 different doses: 0.05 mg/kg, [2]: 0.15 mg/kg, and [3]: 0.45 mg/kg, and “IACS-010759” has been used at 2 different doses: 0.05 mg/kg, and [2]: 0.45 mg/kg. The negative control (denoted DMSO) represents treatment with the DMSO molecule diluent.

[8] = system: 31 human B and T cell lymphoma lines; experiment: AnnexinV/PI cytometry, % apoptotic cells in 31 lymphoma lines; assay type: cell-based; settings: compared with IACS-010759, FIG. 3
Excerpt: Analyses of the effect on cell growth of compound (Ia) in accordance with the invention in comparison with compound “[…]” (denoted IACS) not in accordance with the invention have been conducted on a wide series of 31 human B and T cell lymphoma lines, after AnnexinV/PI labelling and analysis with the “ATTUNE” cytometer (Thermo Fisher Scientific). In addition to the number of living cells represented in FIG. 2a, this technology enables the % of cells undergoing apoptosis to be evaluated. The results have been represented in FIG. 3 in the form of a “HeatMap” with a black and white gradient, black representing the highest % of apoptotic cells.

[9] = 10 μM cumulative concentration, FIG. 1b
[10] = dose 0.15 mg/kg (compound Ia [2])
[11] = dose 0.45 mg/kg (compound Ia [3], IACS [2])

Structure (SMILES) | effect on cell growth (number of living cells) ([2]; 10 μM or 25 μM, FIG. 7) | effect on cell growth (number of living cells) [3] | effect on cell growth (number of living cells) ([2]; 10 μM, FIG. 5b) | inhibition of OCR [1, 9] | effect on mitochondrial respiration [1] | effect on cell growth (number of live tumour cells) [6] | further results
C=C(C)[C@H]1Cc2c(ccc3c2O[C@@H]2COc4cc(OC)c(OC)cc4[C@@H]2C3=O)O1 [Rotenone, reference compound] |  |  |  |  |  |  | inhibition of OCR ([1]; 1.2 μM, FIG. 1a): instantaneous and almost complete inhibition of OCR
Cl.Cl.c1ccc(N2CCN(CCCCCCCN3CCN(c4ccccn4)CC3)CC2)nc1 [Compound If] | inhibit cell growth |  |  |  |  |  | 
c1cnc(NCCCCCCCCCCCCNc2ncccn2)nc1 [Compound Id] |  | inhibits cell growth | inhibits cell growth |  |  |  | effect on cell growth [4]: inhibitory effect on cell growth
N/C(=N/c1cccc2ccccc12)SCCCCCCS/C(N)=N\c1cccc2ccccc12 [reference compound] |  |  |  |  |  |  | IC50 [5]: 15.1 µM
Cl.Cl.c1ccc(N2CCN(CCCCCCCCCCCCN3CCN(c4ccccn4)CC3)CC2)nc1 [Compound Ic, 1-(2-pyridyl)-4-[12-[4-(2-pyridyl)piperazin-1-yl]dodecyl]piperazine dihydrochloride] |  | inhibits cell growth | inhibits cell growth | Virtually complete inhibition of OCR | moderate and progressive effect | inhibit cell growth | 
c1cnc(N2CCN(CCCCCCCN3CCN(c4ncccn4)CC3)CC2)nc1 [Compound Ie] | inhibit cell growth |  |  |  |  |  | 
Cl.Cl.c1cnc(N2CCN(CCCCCCCCCCCCN3CCN(c4ncccn4)CC3)CC2)nc1 [Compound Ib, 2-[4-[12-(4-pyrimidin-2-ylpiperazin-1-yl)dodecyl]piperazin-1-yl]pyrimidine dihydrochloride] |  | inhibits cell growth | inhibits cell growth | Virtually complete inhibition of OCR | moderate and progressive effect | inhibit cell growth | 
c1cnc(NCCCCCCCCCCCCNC2=NCCN2)nc1 [Compound Ia, N′-(4,5-dihydro-1H-imidazol-2-yl)-N-pyrimidin-2-yl-dodecane-1,12-diamine] | inhibit cell growth |  |  | Virtually complete inhibition of OCR | moderate and progressive effect | inhibit cell growth | reduction in primary tumour volume [7, 10]: 73%; reduction in the relative number of metastases [7, 10]: 70%; reduction in primary tumour volume [7, 11]: 70%; reduction in the relative number of metastases [7, 11]: 72%; reduction in primary tumour volume ([7]; dose [1] 0.05 mg/kg): 48%; reduction in the relative number of metastases ([7]; dose [1] 0.05 mg/kg): 45%; toxicity (% of apoptotic cells) [8]: increased with respect to that of “IACS-010759” for a sub-group of 8 lines; effect on cell growth [4]: inhibitory effect on cell growth; IC50 [5]: 1.5 µM
COc1cccc2c1C(=O)c1c(O)c3c(c(O)c1C2=O)C[C@@](O)(C(=O)CO)C[C@@H]3O[C@H]1C[C@H](N)[C@H](O)[C@H](C)O1 [doxorubicin, Doxorubicin, reference compound] |  |  |  |  |  |  | regression in the number of metastases ([7]; 0.0097 mg/kg, lower CAM, RT-qPCR): 99%; reduction in primary tumour volume ([7]; 0.0097 mg/kg, treatments E11, E13, E15, E17, read at E18): 90%
